Test results taken from publication PMC7956517, “Induction of Apoptosis and Regulation of MicroRNA Expression by (2E,6E)-2,6-bis-(4-hydroxy-3-methoxybenzylidene)-cyclohexanone (BHMC) Treatment on MCF-7 Breast Cancer Cells” (Molecules, 2021).

What was measured:
MCF-7 cells [1] = test: miRNA microarray analysis; assay type: cell-based, human
Procedure: (§1) Total RNAs including small RNAs were isolated from MCF-7 treated with BHMC using miRNeasy kit (Qiagen, Hilden, Germany) according to manufacturer’s instructions. The quality of extracted RNA was assessed by the NanoDrop-1000 Spectrophotometer (NanoDrop Technologies Inc., Wilmington, DE, USA) and Agilent 2100 Bioanalyzer, and samples with A260/A280 ratio between 1.8 to 2.1 and an RIN value of 8 and above was used for further analysis.
Total RNA (8 µL) of control and BHMC-treated MCF-7 cells was directly labelled using Flash Tag Biotin HSR Labeling kits (Affymetrix, Santa Clara, CA, USA) in accordance with the instructions of the manufacturer. RNA was heated to 80 °C for 10 min before labeling to inactivate any residual DNase activity. RNA was hybridized for 42 h to the GeneChip miRNA 2.0 array (Affymetrix, Santa Clara, CA, USA). The GeneChip miRNA 2.0 arrays contain 100% miRBase version 15 coverage of 131 organisms and contain probes for 3439 humans non-coding RNAs (ncRNAs), including 1105 miRNAs and 2334 other ncRNAs (including scaRNAs and snoRNAs). Washing and staining were automatically performed using the Affymetrix Fluidics Station 450 (Affymetrix, Santa Clara, CA, USA), and probe intensities were measured using the GeneChip® Scanner (Affymetrix, Santa Clara, CA, USA).
Data discussed in this publication have been deposited in the NCBI Gene Expression Omnibus and are accessible through the GEO Series accession number GSE155467. Using the gene expression workflow in Partek Genomics Suite software (Cat 4462922G, Partek Inc., St. Louis, MO, USA), the CEL files generated by the Affymetrix data file were converted into .nFMT files. […] Differentially expressed miRNAs (>5-fold change, p < 0.05) were identified using analysis of variance (ANOVA) analysis.

MCF-7 cells [2] = test: MTT cell viability assay, MCF-7; assay type: cell-based, human; conditions: for IC50: Homo sapiens, MCF7, MCF-7, MTT
Procedure: (§2) The MTT cell viability assay for MCF-7, MDA-MB-231 and MCF 10A cells were conducted according to a previously reported protocol. MCF-7, MDA-MB-231, and MCF-10A were seeded in a 96-well plate at a concentration of 0.8 × 10^5 cells/mL and left overnight in a CO2 incubator set at 37 °C. Then, BHMC with 2-fold dilution ranging between 180 and 3 µM was added to the respective cell lines while the last row of the 96-well plate served as untreated control cells. After 24, 48, and 72 h of incubation, 20 µL of 5 mg/mL MTT solution was added to all wells and the plate was further incubated for three hours. Then, 180 µL of supernatant was carefully discarded and added with 100 µL of DMSO to solubilize the purple crystals. Optical density was measured at 570 nm wavelength using ELISA Reader (Bio-tek Instrument, Winooski, Vermont, USA). The percentage of cell viability was calculated following deduction of the blank cell absorbance using the formula (Equation (1)):(1) Cell viability % =Absorbance of treated cells/Absorbance of untreated control× 100%
(§3) The dose–response curve was plotted, and the concentration that yields 50% inhibition of cell growth (IC50) was obtained as a parameter for cytotoxicity. Starting from this point, BHMC with IC50 value was used throughout the study to induce cell death. On the other hand, selectivity index (SI) was obtained by using the following formula (Equation (2)):(2) Selectivity index SI =IC50 of MCF−10A/IC50 of MCF−7 or MDA−MB−231

MCF-7 cells [3] = test: Light and fluorescent (AO/PI) microscopic observation; assay type: cell-based, human; conditions: MCF-7, 8.2 µM of BHMC, 48 h
Procedure: (§4) MCF-7 cells were seeded at 0.8 × 10^5 cells/mL in a 6-well plate and left overnight in a CO2 incubator set at 37 °C. […] Untreated control was prepared simultaneously. After 24, 48, or 72 h of incubation, the cell was harvested using TrypLE (Gibco Thermo Fisher Scientific, Waltham, MA, USA), washed with phosphate buffer saline (PBS), and subjected to the following assays. All assays were tested with three biological replicates.
Morphology of control and BHMC-treated MCF-7 cells was observed under light microscope (Nikon, Minato City, Japan). For fluorescent microscope observation, control and BHMC-treated MCF-7 cells (2 × 10^5 cells) were stained with 10 μL of 100 μg/mL acridine orange (AO) and 100 μg/mL propidium iodide (PI) for 10 min. After that, the cells were washed and examined under fluorescent microscope (Nikon FC-35DX, Minato City, Japan) using an excitation filter and barrier filter at 450–490 nm and long pass filter of 520 nm.

MCF-10A cells = test: MTT cell viability assay, MCF-10A; assay type: cell-based; conditions: Homo sapiens
Procedure: as §2, §3

MCF-7 cells [4] = test: Real-time quantitative PCR of miRNAs expression; assay type: cell-based, human; conditions: qPCR, BHMC-treated vs untreated MCF-7
Procedure: as §1
One microgram (μg) of total RNA was used in reverse transcription and the process was conducted using the miScript II RT Kit (Qiagen/SABiosciences, Hilden, Germany) according to the manufacturer protocol. Quantitative RT-PCR was carried out using CFX96 (BioRad, Hercules, CA, USA). […] The miRNA-specific primers for miR-3195, miR-30a, miR-6813-5p, and miR-6132 were designed by miRprimer and commercially synthesized as listed in Table 3. The expression of putative miRNAs was evaluated using geNorm algorithms. PCR reactions were performed in triplicate for each sample. The relative amounts of miRNAs were normalized against reference miRNAs and the fold change for each miRNA was calculated by the 2^−ΔΔCt method.

MCF-7 cells [5] = test: Real-time quantitative PCR of mRNA expression (SNAIL, VEGF); assay type: cell-based, human; conditions: qPCR, BHMC-treated vs untreated MCF-7
Procedure: as §1
Real-time quantitative PCR was performed on SNAIL and VEGF, which were the target of miR-30a and miR-3195 [31]. One microgram (μg) of total RNA was reverse transcripted using the QuantiTect Reverse Transcription Kit (Qiagen, USA) according to the manufacturer protocol. Primers were designed using Primer-Blast (Table 2) and synthesized commercially. NEXpro qPCR Evagreen Master Mix (NEX Diagnostics, Gyeonggi-do, Korea) was used to perform the mRNA qPCR based on the manufacturer protocol. The qPCR system CFX96 (BioRad, USA) was used and the qPCR conditions were: 50 °C for 2 min, 95 °C for 10 min, and 40 cycles of 95 °C for 15 s, and 60 °C for 1 min. A final melting curve was performed to ensure that only one amplicon was present. The relative amounts of mRNAs were normalized against reference gene beta-actin (ACTB) as described previously and the fold change for each mRNA was calculated by the 2^−ΔΔCt method.

MCF-7 cells [6] = test: Flow cytometry Annexin V apoptosis detection; assay type: cell-based, human; conditions: MCF-7, Annexin V/7ADD
Procedure: as §4
Cell apoptosis assay was conducted based on a study method with some changes. […] In brief, harvested cells were washed and re-suspended in 100 µL of PBS. […] Approximately, 10,000 cells in the population were captured. The experiment was qualitatively repeated for three times.

MCF-7 cells [7] = test: Flow cytometry cell cycle analysis; assay type: cell-based, human; conditions: MCF-7, BHMC at IC50 (8.2 µM in figure; 12.50 µM in methods)
Procedure: as §4
Cell cycle progression of control and BHMC-treated MCF-7 cells was evaluated by staining with BD Cycletest Plus kit (Becton Dickinson, Franklin Lakes, NJ, USA) and subjected to BD FACS Calibur flow cytometer (Becton Dickinson, USA) analysis. In brief, harvested cells were incubated with 250 µL of trypsin buffer for 10 min followed by addition of 200 µL of trypsin inhibitor containing RNase buffer. After 10 min of incubation, the samples were finally stained with 200 µL of PI solution. Flow cytometer analysis was carried out after 10 min of incubation with the PI stain solution. A minimum of 10,000 cells in the population was captured. Three independent experiments were repeated with similar parameter.

MDA-MB-231 cells = test: MTT cell viability assay, MDA-MB-231; assay type: cell-based, human; conditions: for IC50: Homo sapiens, MDA-MB-231, MTT
Procedure: as §2, §3

[8] = IC50 of MCF-10A / IC50 of MCF-7, 24 h
[9] = IC50 of MCF-10A / IC50 of MCF-7, 48 h
[10] = IC50 of MCF-10A / IC50 of MCF-7, 72 h
[11] = IC50 of MCF-10A / IC50 of MDA-MB-231, 24 h
[12] = IC50 of MCF-10A / IC50 of MDA-MB-231, 48 h
[13] = IC50 of MCF-10A / IC50 of MDA-MB-231, 72 h

SMILES: COc1cc(/C=C2\CCC/C(=C\c3ccc(O)c(OC)c3)C2=O)ccc1O [BHMC, (2E,6E)-2,6-bis-(4-hydroxy-3-methoxybenzylidene)-cyclohexanone]
- downregulation of miR-6813-5p, miR-6132, miR-4725-3p, miR-1587, miR-6779-5p (MCF-7 cells [1]; BHMC-treated MCF-7): at least 30 folds
- upregulation of top five overexpressed miRNAs (miR-184, miR-3195, miR-149-5p, miR-30a-3p, miR532-3p) (MCF-7 cells [1]; BHMC-treated MCF-7): at least 10 folds
- hsa-miR-30a-3p Upregulated Fold Change (MCF-7 cells [1]; BHMC-treated vs control MCF-7): 12.9
- hsa-miR-149-5p Upregulated Fold Change (MCF-7 cells [1]; BHMC-treated vs control MCF-7): 13.06
- hsa-miR-184 Upregulated Fold Change (MCF-7 cells [1]; BHMC-treated vs control MCF-7): 17.58
- hsa-miR-532-3p Upregulated Fold Change (MCF-7 cells [1]; BHMC-treated vs control MCF-7): 11.73
- hsa-miR-1587 Downregulated Fold Change (MCF-7 cells [1]; BHMC-treated vs control MCF-7): −35.89
- hsa-miR-3195 Upregulated Fold Change (MCF-7 cells [1]; BHMC-treated vs control MCF-7): 16.21
- hsa-miR-4725-3p Downregulated Fold Change (MCF-7 cells [1]; BHMC-treated vs control MCF-7): −41.51
- hsa-miR-6132 Downregulated Fold Change (MCF-7 cells [1]; BHMC-treated vs control MCF-7): −61.96
- hsa-miR-6779-5p Downregulated Fold Change (MCF-7 cells [1]; BHMC-treated vs control MCF-7): −33.07
- hsa-miR-6813-5p Downregulated Fold Change (MCF-7 cells [1]; BHMC-treated vs control MCF-7): −71.82
- IC50 (MCF-7 cells [2]; 24 h): 23.5 ± 2.41 µM
- IC50 (MCF-7 cells [2]; 48 h): 12.5 ± 1.87 µM
- IC50 (MCF-7 cells [2]; 72 h): 11 ± 1.33 µM
- SI MCF10A/MCF7 (MCF-7 cells [2]; [8]): 7.66
- SI MCF10A/MCF7 (MCF-7 cells [2]; [9]): 8.64
- SI MCF10A/MCF7 (MCF-7 cells [2]; [10]): 8.96
- selectivity index (SI) MCF-7 against MCF-10A (MCF-7 cells [2]; summary over 24, 48 and 72 h): > 7
- morphological changes, light microscope (MCF-7 cells [3]): reduced the MCF-7 cells number and severely distorted the MCF-7 cells shape
- morphology, acridine orange and propidium iodide fluorescent microscopy (MCF-7 cells [3]): presented the morphological characteristics of apoptotic cells
- IC50 (MCF-10A cells; 24 h): 180 ± 3.11 µM
- IC50 (MCF-10A cells; 48 h): 108 ± 2.15 µM
- IC50 (MCF-10A cells; 72 h): 98.4 ± 3.22 µM
- miR-30a-3p expression increment (MCF-7 cells [4]): at least 5 fold
- miR-3195 expression increment (MCF-7 cells [4]): at least 5 fold
- miR-6132 downregulation (MCF-7 cells [4]): at least 10 folds
- miR-6813-5p downregulation (MCF-7 cells [4]): at least 10 folds
- SNAIL mRNA expression (MCF-7 cells [5]): downregulated
- VEGF mRNA expression (MCF-7 cells [5]): downregulated
- Early apoptotic cells (MCF-7 cells [6]; BHMC at IC50, 24 h): 10.34%
- Late apoptotic/necrotic cells (MCF-7 cells [6]; BHMC at IC50, 24 h): 8.81%
- Early apoptotic cells (MCF-7 cells [6]; BHMC at IC50, 72 h): 43.44%
- Late apoptotic/necrotic cells (MCF-7 cells [6]; BHMC at IC50, 72 h): 38.22%
- percentage of cells at G2/M phase (MCF-7 cells [7]; 24 h): 24.26%
- percentage of cells at Sub G0/G1 phase (MCF-7 cells [7]; 24 h): 6.64%
- percentage of cells at Sub G0/G1 phase (MCF-7 cells [7]; 72 h): 22.80%
- IC50 (MDA-MB-231 cells; 24 h): 29.4 ± 3.15 µM
- IC50 (MDA-MB-231 cells; 48 h): 20.1 ± 1.94 µM
- IC50 (MDA-MB-231 cells; 72 h): 19.7 ± 3.14 µM
- SI MCF10A/MDA-MB-231 (MDA-MB-231 cells; [11]): 6.14
- SI MCF10A/MDA-MB-231 (MDA-MB-231 cells; [12]): 5.38
- SI MCF10A/MDA-MB-231 (MDA-MB-231 cells; [13]): 5.00
- selectivity index (SI) MDA-MB-231 against MCF-10A (MDA-MB-231 cells; summary over 24, 48 and 72 h): > 5

SMILES: COc1cc(/C=C/C(=O)CC(=O)/C=C/c2ccc(O)c(OC)c2)ccc1O [Curcumin, reference compound]
- IC50 (MCF-7 cells [2]; 24 h): 55.7 ± 2.77 µM
- IC50 (MCF-7 cells [2]; 48 h): 45.1 ± 2.12 µM
- IC50 (MCF-7 cells [2]; 72 h): 39.8 ± 1.51 µM
- SI MCF10A/MCF7 (MCF-7 cells [2]; [8]): 3.37
- SI MCF10A/MCF7 (MCF-7 cells [2]; [9]): 2.48
- SI MCF10A/MCF7 (MCF-7 cells [2]; [10]): 2.51
- IC50 (MCF-10A cells; 24 h): 188 ± 4.52 µM
- IC50 (MCF-10A cells; 48 h): 112 ± 4.57 µM
- IC50 (MCF-10A cells; 72 h): 100 ± 4.31 µM
- IC50 (MDA-MB-231 cells; 24 h): 32 ± 2.81 µM
- IC50 (MDA-MB-231 cells; 48 h): 26 ± 2.33 µM
- IC50 (MDA-MB-231 cells; 72 h): 23 ± 2.15 µM
- SI MCF10A/MDA-MB-231 (MDA-MB-231 cells; [11]): 5.88
- SI MCF10A/MDA-MB-231 (MDA-MB-231 cells; [12]): 4.31
- SI MCF10A/MDA-MB-231 (MDA-MB-231 cells; [13]): 4.35
